According to patent US8076487B2, “Pyridone derivative and herbicide” (Kumiai Chemical Industry Co., Ltd., priority 2006, dated 2011):

Legend:
Assay type in all cases: in vivo
[1] = tested on: barnyardgrass (Echinochloa crus-galli (L.) P. Beauv. var. crus-galli); test: Test Example 2: herbicidal effect by soil application to upland field; conditions: soil surface spray, upland field soil, 1,000 g active ingredient per hectare, 21st day after application
Summary of the method: (§1)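 In this soil-application test, sown and soil-covered pots are sprayed uniformly with the formulation diluted in water, giving 1,000 g of active ingredient per ha in a volume of 1,000 L per ha. Plants then grow in a greenhouse for 21 days before herbicidal scoring by a standard scale.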

[2] = tested on: green foxtail (Setaria viridis (L.) P. Beauv.); test: as above; conditions: soil surface spray, upland field soil, 1,000 g active ingredient per hectare, 21st day after application
Summary of the method: as §1

[3] = tested on: velvetleaf (Abutilon theophrasti medicus); test: as above; conditions: soil surface spray, upland field soil, 1,000 g active ingredient per hectare, 21st day after application
Summary of the method: as §1

[4] = tested on: slender amaranth (Amaranthus viridis L.); test: as above; conditions: soil surface spray, upland field soil, 1,000 g active ingredient per hectare, 21st day after application
Summary of the method: as §1

[5] = tested on: barnyardgrass (Echinochloa crus-galli (L.) P. Beauv. var. crus-galli); test: Test Example 3: herbicidal effect by application to upland field (foliage treatment); conditions: 14th day after application; for herbicidal effect, Barnyardgrass: foliage treatment, 1,000 g active ingredient per 1 hectare, greenhouse
Summary of the method: (§2)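 Plants were sown in field soil and raised in a greenhouse for two weeks before foliar spraying. A water-diluted wettable powder was applied at 1,000 g active ingredient per hectare in 1,000 liters per hectare. Herbicidal effect was scored on a standard scale 14 days later.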

[6] = tested on: green foxtail (Setaria viridis (L.) P. Beauv.); test: as above; conditions: 14th day after application; for herbicidal effect, Green Foxtail: foliage treatment, 1,000 g active ingredient per 1 hectare, greenhouse
Summary of the method: as §2

[7] = tested on: velvetleaf (Abutilon theophrasti medicus); test: as above; conditions: 14th day after application; for herbicidal effect, Velvetleaf: foliage treatment, 1,000 g active ingredient per 1 hectare, greenhouse
Summary of the method: as §2

[8] = tested on: slender amaranth (Amaranthus viridis L.); test: as above; conditions: 14th day after application; for herbicidal effect, Slender Amaranth: foliage treatment, 1,000 g active ingredient per 1 hectare, greenhouse
Summary of the method: as §2

[9] = tested on: heartshape false pickerelweed (Monochoria vaginalis (Burm.f.) C.Presl); test: Test Example 1: herbicidal effect by soil application to paddy field; conditions: paddy field soil application; active ingredient 1,000 g per 1 hectare; wettable powder added dropwise to water surface the day after sowing; examined on the 21st day after application
Summary of the method: (§3)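 Plants were sown in flooded (3 cm) paddy soil and evaluated for herbicidal effect 21 days after soil application in a greenhouse.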

[10] = tested on: early watergrass (Echinochloa oryzicola Vasing); test: as above; conditions: paddy field soil application; active ingredient 1,000 g per 1 hectare; wettable powder added dropwise to water surface the day after sowing; examined on the 21st day after application
Summary of the method: as §3

[11] = tested on: Japanese bulrush (Scirpus juncoides Roxb.); test: as above; conditions: paddy field soil application; active ingredient 1,000 g per 1 hectare; wettable powder added dropwise to water surface the day after sowing; examined on the 21st day after application
Summary of the method: as §3

[12] = foliage treatment, plants grown two weeks, 1,000 g active ingredient per hectare

Compound | herbicidal effect (index), Barnyardgrass [1] | herbicidal effect (index), Green Foxtail [2] | herbicidal effect (index), Velvetleaf [3] | herbicidal effect (index), Slender Amaranth [4] | herbicidal effect, Barnyardgrass [5] | herbicidal effect, Green Foxtail [6] | herbicidal effect, Velvetleaf [7] | herbicidal effect, Slender Amaranth [8] | herbicidal effect, Monochoria vaginalis (Burm. f.) C. Presl [9] | herbicidal effect, Echinochloa oryzicola Vasing [10] | herbicidal effect, Scirpus juncoides Roxb. [11] | herbicidal effect (index), Barnyardgrass [5, 12] | herbicidal effect (index), Green Foxtail [6, 12] | herbicidal effect (index), Velvetleaf [7, 12] | herbicidal effect (index), Slender Amaranth [8, 12]
CCCCn1c(C(F)(F)F)ccc(C(=O)C2=C(O)C3CCC(C3)C2=O)c1=O (stereo not shown) [III-6] | 5 (90% or more of herbicidal effect and crop phytotoxicity) | 5 (90% or more of herbicidal effect and crop phytotoxicity) | 5 (90% or more of herbicidal effect and crop phytotoxicity) | 5 (90% or more of herbicidal effect and crop phytotoxicity) | 5 (90% or more of herbicidal effect and crop phytotoxicity) | 5 (90% or more of herbicidal effect and crop phytotoxicity) | 5 (90% or more of herbicidal effect and crop phytotoxicity) | 5 (90% or more of herbicidal effect and crop phytotoxicity) | 5 (90% or more of herbicidal effect and crop phytotoxicity) | 5 (90% or more of herbicidal effect and crop phytotoxicity) | 5 (90% or more of herbicidal effect and crop phytotoxicity) | – | – | – | –
CCCS(=O)(=O)Oc1c(C(=O)c2ccc(C(F)(F)F)n(-c3cc(F)ccc3F)c2=O)cnn1C [IV-84] | 5 (90% or more of herbicidal effect and crop phytotoxicity) | 5 (90% or more of herbicidal effect and crop phytotoxicity) | 5 (90% or more of herbicidal effect and crop phytotoxicity) | 5 (90% or more of herbicidal effect and crop phytotoxicity) | 4 (70 to less than 90% of herbicidal effect and crop phytotoxicity) | 3 (50 to less than 70% of herbicidal effect and crop phytotoxicity) | 5 (90% or more of herbicidal effect and crop phytotoxicity) | 4 (70 to less than 90% of herbicidal effect and crop phytotoxicity) | 5 (90% or more of herbicidal effect and crop phytotoxicity) | 5 (90% or more of herbicidal effect and crop phytotoxicity) | 5 (90% or more of herbicidal effect and crop phytotoxicity) | – | – | – | –
C[S+]([O-])CCn1c(C(F)(F)F)ccc(C(=O)C2=C(O)C3CCC(C3)C2=O)c1=O (stereo not shown) [III-29] | 5 (90% or more of herbicidal effect and crop phytotoxicity) | 5 (90% or more of herbicidal effect and crop phytotoxicity) | 5 (90% or more of herbicidal effect and crop phytotoxicity) | 5 (90% or more of herbicidal effect and crop phytotoxicity) | 5 (90% or more of herbicidal effect and crop phytotoxicity) | 5 (90% or more of herbicidal effect and crop phytotoxicity) | 5 (90% or more of herbicidal effect and crop phytotoxicity) | 5 (90% or more of herbicidal effect and crop phytotoxicity) | 5 (90% or more of herbicidal effect and crop phytotoxicity) | 5 (90% or more of herbicidal effect and crop phytotoxicity) | 5 (90% or more of herbicidal effect and crop phytotoxicity) | – | – | – | –
CCN(C(=O)OC)n1c(C(F)(F)F)ccc(C(=O)C2=C(O)CCCC2=O)c1=O [I-191] | 5 (90% or more of herbicidal effect and crop phytotoxicity) | 5 (90% or more of herbicidal effect and crop phytotoxicity) | 5 (90% or more of herbicidal effect and crop phytotoxicity) | 5 (90% or more of herbicidal effect and crop phytotoxicity) | 5 (90% or more of herbicidal effect and crop phytotoxicity) | 5 (90% or more of herbicidal effect and crop phytotoxicity) | 5 (90% or more of herbicidal effect and crop phytotoxicity) | 5 (90% or more of herbicidal effect and crop phytotoxicity) | 5 (90% or more of herbicidal effect and crop phytotoxicity) | 5 (90% or more of herbicidal effect and crop phytotoxicity) | 5 (90% or more of herbicidal effect and crop phytotoxicity) | – | – | – | –
CCCn1c(C(F)(F)F)ccc(C(=O)c2cnn(CC)c2OS(=O)(=O)CCC)c1=O [IV-202] | 5 (90% or more of herbicidal effect and crop phytotoxicity) | 5 (90% or more of herbicidal effect and crop phytotoxicity) | 5 (90% or more of herbicidal effect and crop phytotoxicity) | 5 (90% or more of herbicidal effect and crop phytotoxicity) | 5 (90% or more of herbicidal effect and crop phytotoxicity) | 5 (90% or more of herbicidal effect and crop phytotoxicity) | 5 (90% or more of herbicidal effect and crop phytotoxicity) | 5 (90% or more of herbicidal effect and crop phytotoxicity) | 5 (90% or more of herbicidal effect and crop phytotoxicity) | 5 (90% or more of herbicidal effect and crop phytotoxicity) | 5 (90% or more of herbicidal effect and crop phytotoxicity) | – | – | – | –
COCc1cc(-n2c(C(F)(F)F)ccc(C(=O)C3=C(O)CCCC3=O)c2=O)ccc1F [I-111] | 5 (90% or more of herbicidal effect and crop phytotoxicity) | 5 (90% or more of herbicidal effect and crop phytotoxicity) | 5 (90% or more of herbicidal effect and crop phytotoxicity) | 5 (90% or more of herbicidal effect and crop phytotoxicity) | 5 (90% or more of herbicidal effect and crop phytotoxicity) | 5 (90% or more of herbicidal effect and crop phytotoxicity) | 5 (90% or more of herbicidal effect and crop phytotoxicity) | 5 (90% or more of herbicidal effect and crop phytotoxicity) | 5 (90% or more of herbicidal effect and crop phytotoxicity) | 5 (90% or more of herbicidal effect and crop phytotoxicity) | 5 (90% or more of herbicidal effect and crop phytotoxicity) | – | – | – | –
COc1cc(-n2c(C(F)(F)F)ccc(C(=O)C3=C(O)CCCC3=O)c2=O)ccc1Cl [I-108] | 5 (90% or more of herbicidal effect and crop phytotoxicity) | 4 (70 to less than 90% of herbicidal effect and crop phytotoxicity) | 5 (90% or more of herbicidal effect and crop phytotoxicity) | 5 (90% or more of herbicidal effect and crop phytotoxicity) | – | – | – | – | 5 (90% or more of herbicidal effect and crop phytotoxicity) | 5 (90% or more of herbicidal effect and crop phytotoxicity) | 5 (90% or more of herbicidal effect and crop phytotoxicity) | 5 (90% or more of herbicidal effect and crop phytotoxicity) | 5 (90% or more of herbicidal effect and crop phytotoxicity) | 5 (90% or more of herbicidal effect and crop phytotoxicity) | 5 (90% or more of herbicidal effect and crop phytotoxicity)
COc1cncc(-n2c(C(F)(F)F)ccc(C(=O)C3=C(O)CCCC3=O)c2=O)c1 [I-151] | 5 (90% or more of herbicidal effect and crop phytotoxicity) | 5 (90% or more of herbicidal effect and crop phytotoxicity) | 5 (90% or more of herbicidal effect and crop phytotoxicity) | 5 (90% or more of herbicidal effect and crop phytotoxicity) | 5 (90% or more of herbicidal effect and crop phytotoxicity) | 5 (90% or more of herbicidal effect and crop phytotoxicity) | 5 (90% or more of herbicidal effect and crop phytotoxicity) | 5 (90% or more of herbicidal effect and crop phytotoxicity) | 5 (90% or more of herbicidal effect and crop phytotoxicity) | 5 (90% or more of herbicidal effect and crop phytotoxicity) | 5 (90% or more of herbicidal effect and crop phytotoxicity) | – | – | – | –
